Measured values published in patent US20240174695A1, “Spirocycle Containing Bicyclic Heteroaryl Compounds” (Protego Biopharma, Inc., priority 2022, published 2024).

Test system: Recombinant amyloidogenic full length light chain protein WIL-FL T46L
Test: Differential Scanning Fluorimetry Assay (thermal shift assay); further: test concentration or dose not given here
Type: binding
Details: Thermal Shift Protein Stability Kit (Biotium), 96-well plates; protein and compounds incubated at RT for 30 min before adding the dye
In short: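 E. coli-expressed full-length WIL-FL T46L light chain pre-incubated with compound 30 min at RT before dye addition. Tm obtained by curve fitting of the dye thermal-melt signal; value is ΔTm, compound minus vehicle, in °C.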

Compound | DSF temperature shift: [Tm]compound−[Tm]vehicle
COC(=O)c1cc(N2CC3(CN(CC(O)c4nc5c(C)cc(OC[C@H](C)c6ccccc6)cn5n4)C(=O)N3)C2)ccn1 (stereo partly shown) [Compound 137] | ***** (>2.5° C.=*****)
COC(CN1CC2(CCN(c3ccnc(O)c3)CC2)NC1=O)c1nc2c(C)cc(OC[C@H](C)c3ccccc3)cn2n1 (stereo partly shown) [Compound 138] | **** (>1.5-2.5° C.=****)
COc1ncccc1N1CCC2(CC1)CN(CCc1nc3c(C)cc(OC[C@H](C)c4ccccc4)cn3n1)C(=O)N2 [Compound 139] | *** (>1-1.5° C.=***)
COc1cccc(N2CCC3(CC2)CN(CC(O)c2nc4c(C)cc(OCC5(c6ccccc6)CC5)cn4n2)C(=O)N3)n1 (stereo not shown) [Compound 140] | **** (>1.5-2.5° C.=****)
COc1ccc(N2CCC3(CC2)CN(CCc2nc4c(C)cc(OC[C@H](C)c5ccccc5)cn4n2)C(=O)N3)c(C)n1 [Compound 141] | ** (>0.5-1° C.=**)
COc1cc(N2CCC3(CC2)CN(CC(O)c2nc4c(C)cc(OCC5(c6ccccc6)CC5)cn4n2)C(=O)N3)ccn1 (stereo not shown) [Compound 142] | ***** (>2.5° C.=*****)
COc1cc(N2CCC3(CC2)CN(CCc2nc4c(C)cc(OC[C@H](C)c5ccccc5)cn4n2)C(=O)N3)ccn1 [Compound 143] | **** (>1.5-2.5° C.=****)
C[C@@H](COc1cc(CO)c2nc(C(O)CN3CC4(CN(c5ccnc(O)c5)C4)NC3=O)nn2c1)c1ccccc1 (stereo partly shown) [Compound 144] | ***** (>2.5° C.=*****)
C[C@@H](COc1cc(CO)c2nc(C(O)CN3CC4(CN(c5ccnc(O)c5)C4)OC3=O)nn2c1)c1ccccc1 (stereo partly shown) [Compound 145] | ***** (>2.5° C.=*****)
C[C@]1(c2ccccc2)CCN(c2cc(CO)c3nc(C(O)CN4CC5(CN(c6ccnc(O)c6)C5)NC4=O)nn3c2)C1 (stereo partly shown) [Compound 146] | ***** (>2.5° C.=*****)
